Assay results from patent US8975250B2, “5 oxo-5,8-dihydropyrido[2,3-d]pyrimidine derivatives as CaMKII kinase inhibitors for treating cardiovascular diseases” (SANOFI, priority 2010, dated 2015).

Biological target: CaMKIIδ (Homo sapiens (Human), UniProt Q13557)
Test: radioactive test on the recombinant CaMKIIδ enzyme (ATP-γ33P incorporation into Autocamtide-2)
Format: biochemical
Conditions: recombinant CaMKIIδ 0.37 nM, 10 μM ATP, 100 μM Autocamtide-2, two hours at 37°C
Experimental: The compounds according to the invention were tested in vitro for their capacity to inhibit the kinase function of calcium/calmodulin-dependent protein kinase II delta (CaMKIIδ). CaMKIIδis an intracellular serine/threonine kinase. It has an enzymatic domain that is capable of using ATP to autophosphorylate. Its kinase function allows it to use ATP to phosphorylate its substrates on the serines and/or threonines. Several enzymatic and cellular tests are used to evaluate the activity of the products with respect to the kinase function of CaMKIIδ. The kinase activity of CaMKIIδis evaluated by means of a radioactive test on the recombinant CaMKIIδenzyme. The amount of ATP-γ33P incorporated into the specific substrate Autocamtide-2 during its phosphorylation by CaMKIIδis measured. The effect of the products is quantified by the concentration of product that inhibits the total activity of CaMKIIδby 50% (50% inhibitory concentration=IC50). For the determination of the IC50 values, the product is diluted in 100% of DMSO to obtain a 10 mM stock solution. The concentration range tested during the radioactive test ranges from 3 to 10 000 nM with a final concentration in the test of 1% DMSO. This concentration range may, for the most powerful compounds, be extended to 0.1 nM. On the day of the operation, 5 μl of the compounds are deposited in each well of a 96-well plate at 10 times the concentration of that to be tested. Each concentration is tested in duplicate on the same plate. The negative controls (0% activity) and positive controls (100% activity) receive 5 μL of 10% DMSO solution. A reaction premix containing the 1×kinase buffer and an ATP-MgCl2 mixture is prepared. Extemporaneously, a mixture containing the substrate Autocamtide-2 (100 μM) with calmodulin and calcium, and the solution of enzyme CaMKIIδ, is added to the premix. 45 μL of this mixture are immediately deposited per well. The final concentrations in the 50 μL final volume are as follows: compound 1X, 0.37 nM of CaMKIIδ(Invitrogen reference PV3373), 10 μM of ATP (1 μCi per well), 100 μM of Autocamtide-2, […] of calmodulin, 15 mM MgCl2, 400 μM CaCl2, 10 mM β-glycerophosphate, and 1% of DMSO. Two negative controls are prepared on each plate, a first without enzyme CaMKIIδ, and a second without substrate Autocamtide-2; these two elements are replaced with water. The plate is then incubated for two hours at 37°C. with gentle shaking. The reaction is stopped by adding 20 μL per well of H3PO4 solution. The 50 μL of each well are transferred onto a Whatman P81 filter. After rinsing twice with H3PO4 (150 μl/well per wash), followed by two rinses with 150 μL of H2O, 50 μL of scintillant are added per well. The amount of phosphorylated substrate is detected by means of a liquid scintillation counter. The inhibitory activity toward CaMKIIδis given by the concentration that inhibits 50% of the activity of CaMKIIδ. The IC50 values are generally between 10 μM and 10^−5 μM. In the table below, the IC50 values measured for several compounds (I) of the invention are presented as examples.

IC50 [µM]	Compound
0.268	CCn1c(N)c(C(N)=O)c(=O)c2cnc(Nc3cccc(CN(C)C)c3)nc21 [compound 78, 7-Amino-2-(3-dimethylaminomethylphenylamino)-8-ethyl-5-oxo-5,8-dihydropyrido[2,3-d]pyrimidine-6-carboxamide]
0.022	CCn1c(N)c(C(N)=O)c(=O)c2cnc(Nc3ccc(C4CCN(CCC(F)(F)F)CC4)cc3OC)nc21 [compound 35, 7-Amino-8-ethyl-2-{2-methoxy-4-[1-(3,3,3-trifluoropropyl)piperid-4-yl]phenylamino}-5-oxo-5,8-dihydropyrido[2,3-d]pyrimidine-6-carboxamide]
0.663	CN(C)Cc1ccc(Nc2ncc3c(=O)c(C(N)=O)c(N)n(CC(F)(F)F)c3n2)cc1 [compound 60, 7-Amino-2-(4-dimethylaminomethylphenylamino)-5-oxo-8-(2,2,2-trifluoroethyl)-5,8-dihydropyrido[2,3-d]pyrimidine-6-carboxamide]
0.26	CCn1c(N)c(C(N)=O)c(=O)c2cnc(Nc3ccc(C(=O)N4CCN(C)CC4)cc3)nc21 [compound 4, 7-Amino-8-ethyl-2-[4-(4-methylpiperazine-1-carbonyl)phenylamino]-5-oxo-5,8-dihydropyrido[2,3-d]pyrimidine-6-carboxamide]
0.037	CCn1c(N)c(C(N)=O)c(=O)c2cnc(Nc3ccc4c(c3)CCNC4)nc21 [compound 75, 7-Amino-8-ethyl-5-oxo-2-(1,2,3,4-tetrahydroisoquinolin-6-ylamino)-5,8-dihydropyrido[2,3-d]pyrimidine-6-carboxamide]
0.008	CCn1c(N)c(C(N)=O)c(=O)c2cnc(Nc3ccc(N4CCC(N5CCCC5)CC4)c(Cl)c3)nc21 [compound 61, 7-Amino-2-[3-chloro-4-(4-pyrrolidin-1-ylpiperid-1-yl)phenylamino]-8-ethyl-5-oxo-5,8-dihydropyrido[2,3-d]pyrimidine-6-carboxamide]
0.017	CCn1c(N)c(C(N)=O)c(=O)c2cnc(Nc3ccc(C4CCN(C5CC5)CC4)cc3OC)nc21 [compound 29, 7-Amino-2-[4-(1-cyclopropylpiperid-4-yl)-2-methoxyphenylamino]-8-ethyl-5-oxo-5,8-dihydropyrido[2,3-d]pyrimidine-6-carboxamide]
0.118	CCn1c(N)c(C(N)=O)c(=O)c2cnc(Nc3ccc(OC4CCN(C)CC4)cc3)nc21 [compound 76, 7-Amino-8-ethyl-2-[4-(1-methylpiperid-4-yloxy)phenylamino]-5-oxo-5,8-dihydropyrido[2,3-d]pyrimidine-6-carboxamide]
0.396	CCc1cc(N2CCN(C3CC3)CC2)ccc1Nc1ncc2c(=O)c(C(N)=O)c(N)n(CC)c2n1 [compound 96, 7-Amino-2-[4-(4-cyclopropylpiperazin-1-yl)-2-ethylphenylamino]-8-ethyl-5-oxo-5,8-dihydropyrido[2,3-d]pyrimidine-6-carboxamide]
0.139	CC(C)Cn1c(N)c(C(N)=O)c(=O)c2cnc(Nc3ccc(CCN4CCOCC4)cc3)nc21 [compound 52, 7-Amino-8-isobutyl-2-[4-(2-morpholin-4-ylethyl)phenylamino]-5-oxo-5,8-dihydropyrido[2,3-d]pyrimidine-6-carboxamide]
